Test [1] deals with T1, HCV polymerase (NS5B) type 1b (Hepatitis C virus genotype 1b, UniProt P26663).
T1 construct: a region encoding NS5B (J Virol 1991 March, 65(3), 1105-13, 544 amino acids after deletion of 47 amino acids on the C-terminal); 6xHis (C); made in house; host or cells: Escherichia coli
Briefly: Assay of enzyme (HCV polymerase) inhibitory activity, type 1b enzyme. The format is biochemical, HCV BK strain (type 1b). Put shortly: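 His-tagged, C-terminally truncated NS5B (BK strain, 1b; 0.5 μg/ml) incubated with compound 60 min at 25 °C on 3′UTR-derived substrate RNA (5 μg/ml), 50 μM ATP/GTP/CTP, 2 μM UTP plus [3H]UTP, pH 7.5. Acid-precipitated RNA counted; IC50 from radioactivity with and without compound.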

In test [2] the target is T2, HCV polymerase (NS5B) type 1a (Hepatitis C virus genotype 1a, UniProt P26664).
T2 construct: made in house; host or cells: Escherichia coli (by the 'similar method' of the 1b enzyme)
The experiment in a line: Assay of enzyme (HCV polymerase) inhibitory activity, type 1a enzyme. Format: biochemical, HCV type 1a (cloned from the blood of patients). The procedure, abridged:
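His-tagged NS5B, C-terminal 47 residues deleted, type 1a at 1.5 μg/ml, with 5 μg/ml HCV 3′UTR substrate RNA, 50 μM ATP/GTP/CTP, 2 μM UTP plus [3H]UTP, pH 7.5 Tris, 5 mM MgCl2; 60 min at 25° C. TCA-precipitated RNA counted by scintillation; IC50 from radioactivity with vs. without compound.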

Setting [3] is: HCV polymerase inhibitory activity IC50, 1b, type 1b enzyme.
[4] abbreviates: HCV polymerase inhibitory activity IC50, 1a, type 1a enzyme.
The mark [5] stands for this setting: HCV polymerase inhibitory activity (IC50), 1b, type 1b enzyme 0.5 μg/ml, 25° C., 60 min.
Where [6] appears, read: HCV polymerase inhibitory activity (IC50), 1a, type 1a enzyme 1.5 μg/ml, 25° C., 60 min.

What is called IC50 is the midpoint of a concentration-inhibition curve. The low end stands for inhibition by little substance, the high end for a need for much substance. On to `CCCc1ccc(CNC(=O)[C@H]2CN(c3nc(C)c(C(=O)O)cc3F)CCN2S(=O)(=O)c2ccc(OC(F)(F)F)cc2)cc1` [Example 823, 5-fluoro-2-methyl-6-[(R)-3-(4-propyl-benzylcarbamoyl)-4-(4-trifluoromethoxy-benzenesulfonyl)-piperazin-1-yl]-nicotinic acid], for which the IC50 in test [1] (setting [3]) and in test [2] (setting [4]) was 100 to 1000 nM each time.
Consider `Cn1ncc2nc(N3CCN(S(=O)(=O)c4ccc(OC(F)(F)F)cc4)[C@@H](C(=O)NCc4ccc(OC(F)(F)F)cc4)C3)sc2c1=O` [Example 904, (R)-4-(6-methyl-7-oxo-6,7-dihydro-thiazolo[4,5-d]pyridazin-2-yl)-1-(4-trifluoromethoxy-benzenesulfonyl)-piperazine-2-carboxylic acid 4-trifluoromethoxy-benzylamide], for which the IC50 in test [1] (setting [3]) was less than 100 nM; in test [2] (setting [4]), 100 to 1000 nM.
Take `O=C(NCc1ccc(OC(F)(F)F)cc1)[C@H]1CN(c2nc3nc(CO)ncc3s2)CCN1S(=O)(=O)c1ccc(OC(F)(F)F)cc1` [Example 1008, (R)-4-(5-hydroxymethyl-thiazolo[4,5-d]pyrimidin-2-yl)-1-(4-trifluoromethoxy-benzenesulfonyl)-piperazine-2-carboxylic acid 4-trifluoromethoxy-benzylamide]: the 50% inhibitory concentration (IC50) in test [1] (setting [3]) and in test [2] (setting [4]) was less than 100 nM throughout.
With `Cc1nc(N2CCN(S(=O)(=O)c3ccc(OC(F)(F)F)cc3)[C@@H](C(=O)NCc3ccc(C(C)C)cc3)C2)sc1C(=O)OC(C)(C)C` [Example 320, 2-[(R)-3-(4-isopropyl-benzylcarbamoyl)-4-(4-trifluoromethoxy-benzenesulfonyl)-piperazin-1-yl]-4-methyl-thiazole-5-carboxylic acid tert-butyl ester], the concentration for half-maximal inhibition (IC50) in test [1] (setting [5]) and in test [2] (setting [6]) was greater than 1000 nM each time.
`O=C(O)c1cnc(N2CCN(S(=O)(=O)c3ccc(N4CCCC4)cc3)[C@@H](C(=O)NCc3ccc(OC(F)(F)F)cc3)C2)cn1` [Example 788, (R)-4-(4-pyrrolidin-1-yl-benzenesulfonyl)-3-(4-trifluoromethoxy-benzylcarbamoyl)-3,4,5,6-tetrahydro-2H-[1,2′]bipyrazinyl-5′-carboxylic acid]: the concentration for half-maximal inhibition (IC50) in test [1] (setting [3]) and in test [2] (setting [4]) was less than 100 nM in each case.
Regarding `CCCc1ccc(S(=O)(=O)N2CCN(C(C)=O)C[C@@H]2C(=O)NCc2ccc(C(C)C)cc2)c(F)c1` [Example 429, (R)-4-acetyl-1-(2-fluoro-4-propyl-benzenesulfonyl)-piperazine-2-carboxylic acid 4-isopropyl-benzylamide], the IC50 in test [1] (setting [5]) and in test [2] (setting [6]) was less than 100 nM throughout.
For the molecule `CC(C)c1ccc(CNC(=O)[C@H]2CN(c3cc(C(=O)O)nn3C)CCN2S(=O)(=O)c2ccc(C(F)(F)F)cc2)cc1` [Example 439, 5-[(R)-3-(4-isopropyl-benzylcarbamoyl)-4-(4-trifluoromethyl-benzenesulfonyl)-piperazin-1-yl]-1-methyl-1H-pyrazole-3-carboxylic acid], the concentration for half-maximal inhibition (IC50) in test [1] (setting [5]) was 100 to 1000 nM; in test [2] (setting [6]), greater than 1000 nM.
For the molecule `CCC(F)(F)c1ccc(CNC(=O)[C@H]2CN(C(=O)Nc3ccnc(C(F)(F)F)c3)CCN2S(=O)(=O)c2ccc(OC(F)(F)F)cc2)cc1` [Example 555, (R)-4-(4-trifluoromethoxy-benzenesulfonyl)-piperazine-1,3-dicarboxylic acid 3-[4-(1,1-difluoro-propyl)-benzylamide] 1-[(2-trifluoromethyl-pyridin-4-yl)-amide]], the half-maximal inhibitory concentration (IC50) in test [1] (setting [5]) and in test [2] (setting [6]) was 100 to 1000 nM in each case.
Take `CC(C)c1ccc(CNC(=O)[C@H]2CN(C(=O)c3ccncc3)CCN2S(=O)(=O)c2ccc(C(F)(F)F)cc2)cc1` [Example 201, (R)-4-(pyridine-4-carbonyl)-1-(4-trifluoromethyl-benzenesulfonyl)-piperazine-2-carboxylic acid 4-isopropyl-benzylamide]: the IC50 in test [1] (setting [5]) and in test [2] (setting [6]) was greater than 1000 nM each time.
Consider `CCCc1ccc(CNC(=O)[C@H]2CN(c3cnc4c(C(=O)O)cccc4n3)CCN2S(=O)(=O)c2ccc(CC)cc2)cc1` [Example 814, 2-[(R)-4-(4-ethyl-benzenesulfonyl)-3-(4-propyl-benzylcarbamoyl)-piperazin-1-yl]-quinoxaline-5-carboxylic acid], for which the IC50 in test [1] (setting [3]) and in test [2] (setting [4]) was less than 100 nM throughout.
In the case of `CC(=O)N1CCN(S(=O)(=O)c2ccc(C(C)C)cc2)[C@@H](C(=O)NCc2ccc(CCO)cc2)C1` [Example 224, (R)-4-acetyl-1-(4-isopropyl-benzenesulfonyl)-piperazine-2-carboxylic acid 4-(2-hydroxy-ethyl)-benzylamide], the 50% inhibitory concentration (IC50) in test [1] (setting [5]) and in test [2] (setting [6]) was greater than 1000 nM each time.
Consider `O=C(NCc1ccc(OC(F)(F)F)cc1)[C@H]1CN(c2nn3c(C(F)(F)F)cc(=O)nc3s2)CCN1S(=O)(=O)c1ccc(C(F)(F)F)cc1` [Example 1067, (R)-4-(7-oxo-5-trifluoromethyl-7H-[1,3,4]thiadiazolo[3,2-a]pyrimidin-2-yl)-1-(4-trifluoromethyl-benzenesulfonyl)-piperazine-2-carboxylic acid 4-trifluoromethoxy-benzylamide], for which the half-inhibitory concentration (IC50) in test [1] (setting [3]) and in test [2] (setting [4]) was less than 100 nM in each case.
Take `CCC(F)(F)c1ccc(CNC(=O)[C@H]2CN(C(=O)n3cnc(N)n3)CCN2S(=O)(=O)c2ccc(OC(F)(F)F)cc2)cc1` [Example 540, (R)-4-(3-amino-[1,2,4]triazole-1-carbonyl)-1-(4-trifluoromethoxy-benzenesulfonyl)-piperazine-2-carboxylic acid 4-(1,1-difluoro-propyl)-benzylamide]: the concentration for half-maximal inhibition (IC50) in test [1] (setting [5]) and in test [2] (setting [6]) was greater than 1000 nM in each case.
`Cc1ncc2sc(N3CCN(S(=O)(=O)c4ccc(OC(F)(F)F)cc4)[C@@H](C(=O)NCc4ccc(OC(F)F)cc4)C3)nc2n1` [Example 942, (R)-4-(5-methyl-thiazolo[4,5-d]pyrimidin-2-yl)-1-(4-trifluoromethoxy-benzenesulfonyl)-piperazine-2-carboxylic acid 4-difluoromethoxy-benzylamide]: the IC50 in test [1] (setting [3]) and in test [2] (setting [4]) was less than 100 nM each time.
As for `CC(C)c1cc(=O)nc2sc(N3CCN(S(=O)(=O)c4ccc(OC(F)(F)F)cc4)[C@@H](C(=O)NCc4ccc(OC(F)F)cc4)C3)nn12` [Example 1089, (R)-4-(5-isopropyl-7-oxo-7H-[1,3,4]thiadiazolo[3,2-a]pyrimidin-2-yl)-1-(4-trifluoromethoxy-benzenesulfonyl)-piperazine-2-carboxylic acid 4-difluoromethoxy-benzylamide], the IC50 in test [1] (setting [3]) and in test [2] (setting [4]) was less than 100 nM throughout.
As to `Cc1nc(Cl)c2sc(N3CCN(S(=O)(=O)c4ccc(OC(F)(F)F)cc4)[C@@H](C(=O)NCc4ccc(OC(F)(F)F)cc4)C3)nc2n1` [Example 907, (R)-4-(7-chloro-5-methyl-thiazolo[4,5-d]pyrimidin-2-yl)-1-(4-trifluoromethoxy-benzenesulfonyl)-piperazine-2-carboxylic acid 4-trifluoromethoxy-benzylamide], the IC50 in test [1] (setting [3]) and in test [2] (setting [4]) was less than 100 nM each time.
With `CC(=O)N1CCN(S(=O)(=O)c2ccc(Cl)c(Cl)c2)C(C(=O)NCc2ccc(C(F)(F)F)cc2)C1` (stereo not drawn) [Example 41, 4-acetyl-1-(3,4-dichloro-benzenesulfonyl)-piperazine-2-carboxylic acid 4-trifluoromethyl-benzylamide], the half-maximal inhibitory concentration (IC50) in test [1] (setting [5]) and in test [2] (setting [6]) was greater than 1000 nM throughout.
As for `CCC(F)(F)c1ccc(CNC(=O)[C@H]2CN(c3cnc4cnccc4n3)CCN2S(=O)(=O)c2ccc(-c3ccccc3)cc2)cc1` [Example 727, (R)-1-(biphenyl-4-sulfonyl)-4-pyrido[3,4-b]pyrazin-2-yl-piperazine-2-carboxylic acid 4-(1,1-difluoro-propyl)-benzylamide], the concentration for half-maximal inhibition (IC50) in test [1] (setting [3]) and in test [2] (setting [4]) was less than 100 nM throughout.
Regarding `O=C(NCc1ccc(OC(F)(F)F)cc1)[C@H]1CN(c2ccc3nccnc3c2)CCN1S(=O)(=O)c1ccc(OC(F)(F)F)cc1` [Example 782, (R)-4-quinoxalin-6-yl-1-(4-trifluoromethoxy-benzenesulfonyl)-piperazine-2-carboxylic acid 4-trifluoromethoxy-benzylamide], the IC50 in test [1] (setting [3]) and in test [2] (setting [4]) was less than 100 nM in each case.
Take `CN(CC(=O)O)c1ccc(S(=O)(=O)N2CCN(c3cnc4cnccc4n3)C[C@@H]2C(=O)NCc2ccc(OC(F)(F)F)cc2)cc1` [Example 765, (methyl-{4-[(R)-4-pyrido[3,4-b]pyrazin-2-yl-2-(4-trifluoromethoxy-benzylcarbamoyl)-piperazine-1-sulfonyl]-phenyl}-amino)-acetic acid]: the IC50 in test [1] (setting [3]) and in test [2] (setting [4]) was less than 100 nM throughout.
For the molecule `CCC(F)(F)c1ccc(CNC(=O)[C@H]2CN(c3cnc4cncnc4n3)CCN2S(=O)(=O)c2ccc(-c3nc(=O)o[nH]3)cc2)cc1` [Example 759, (R)-1-[4-(5-oxo-2,5-dihydro-[1,2,4]oxadiazol-3-yl)-benzenesulfonyl]-4-pteridin-7-yl-piperazine-2-carboxylic acid 4-(1,1-difluoro-propyl)-benzylamide], the concentration for half-maximal inhibition (IC50) in test [1] (setting [3]) and in test [2] (setting [4]) was less than 100 nM throughout.
